pIC50: −log10 of the molar value.

The subject of the first experiment is HCT-116 cell line. As to the kind of experiment: cytotoxicity against HCT-116 cancer cell line. In kind it is cell-based. The settings on record: Homo sapiens.
With `CC(C)=CCCC(C)=CCCC(C)=CCCC1=CCC2OC1NC=C2C=O` (stereo not drawn) [Compound 1], the pIC50 (as a rule, −log10 of the IC50, conventionally taken in molar units) is 4.94.

For the next experiment, the target named is T1, recombinant PTP1B (catalytic domain) (Homo sapiens, UniProt P18031).
T1 construct: The enzymatic activities of the PTP1B catalytic domain were determined at 30 °C by monitoring the hydrolysis of pNPP
T1 sequence (P18031 3-277 limits assumed): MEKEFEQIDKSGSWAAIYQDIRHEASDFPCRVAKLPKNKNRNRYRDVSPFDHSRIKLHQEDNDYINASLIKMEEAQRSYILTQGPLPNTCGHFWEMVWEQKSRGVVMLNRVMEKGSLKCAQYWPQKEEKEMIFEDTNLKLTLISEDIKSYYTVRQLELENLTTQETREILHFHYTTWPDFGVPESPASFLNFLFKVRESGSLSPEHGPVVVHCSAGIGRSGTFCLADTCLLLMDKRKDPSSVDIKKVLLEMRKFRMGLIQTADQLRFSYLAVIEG
As to the kind of experiment: PTP1B inhibitory assay (pNPP hydrolysis). In kind it is biochemical. The settings on record: in vitro; pNPP substrate, 30 °C, pH 6.5. How it is done:
The enzymatic activities of the PTP1B catalytic domain were determined at 30 °C by monitoring the hydrolysis of pNPP. Dephosphorylation of pNPP generates product pNP, which was monitored at an absorbance of 405 nm. In a typical 100 μL assay mixture containing 50 mmol/L 3-[N-morpholino] propanesulfonic acid (MOPs), pH 6.5, 2 mmol/L pNPP, and 30 nmol/L recombinant PTP1B, activities were continuously monitored and the initial rate of the hydrolysis was determined using the early linear region of the enzymatic reaction kinetic curve.
Turning to `CC(C)=CCCC(C)=CCCC(C)=CCCC1=CCC(O)C2(C(=O)O)CC(=O)NC12` (stereo not drawn) [Compound 3], the negative logarithm of the IC50 (pIC50) is 4.48. As to `CC(C)=CCCC(C)=CCCC(C)=CCCC1=CCC(O)C2(C(N)=O)CC(=O)OC12` (stereo not drawn) [Compound 2], the pIC50 was less than 4.30.

On to `CC(C)=CCC/C(C)=C/CC/C(C)=C/CCc1ccc(O)c(CC(=O)O)c1` [Compound 4], for which the pIC50 was 4.85. As to `CC(C)=CCC/C(C)=C/CC/C(C)=C/CC\C(C=O)=C/C=C/C(C=O)=C/N` [Compound 5], the pIC50 is 5.06. With `CC(C)=CCCC(C)=CCCC(C)=CCCC1=CCC2OC1NC=C2C=O` (stereo not drawn) [Compound 1], the pIC50 is 5.28.

Source of the values: paper PMC4113817, “New Hippolide Derivatives with Protein Tyrosine Phosphatase 1B Inhibitory Activity from the Marine Sponge Hippospongia lachne” (Marine Drugs, 2014).
